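How tested: cells in 96-well plates exposed to compound for 48 hours at five concentrations. Here, GI50 denotes the concentration required for 50% inhibition of growth.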 Active and inactive are the calls of the source. Rule as the data show it: active = GI50 up to about 1.1 µM and inactive = higher.
Key:
Experiment in all cases: NCI tumour cell line growth inhibition, 48 h
[1] = test system: 786-0
[2] = test system: A498
[3] = test system: A549
[4] = test system: ACHN
[5] = test system: CAKI-1
[6] = test system: COLO 205
[7] = test system: DLD-1
[8] = test system: DMS-114
[9] = test system: DMS-273
[10] = test system: EKVX
[11] = test system: HCC 2998
[12] = test system: HCT-116
[13] = test system: HCT-15
[14] = test system: HL-60
[15] = test system: HOP-18
[16] = test system: HOP-62
[17] = test system: HOP-92
[18] = test system: HT-29
[19] = test system: IGROV-1
[20] = test system: K562
[21] = test system: KM-20L2
[22] = test system: KM12
[23] = test system: LOX IMVI
[24] = test system: LXFL 529
[25] = test system: M14
[26] = test system: M19-MEL
[27] = test system: Malme-3M
[28] = test system: NCI-H226
[29] = test system: NCI-H23
[30] = test system: NCI-H460
[31] = test system: NCI-H522
[32] = test system: OVCAR-3
[33] = test system: OVCAR-4
[34] = test system: OVCAR-5
[35] = test system: OVCAR-8
[36] = test system: RXF 393
[37] = test system: SF-268
[38] = test system: SF-295
[39] = test system: SF-539
[40] = test system: SK-MEL-28
[41] = test system: SK-MEL-2
[42] = test system: SK-MEL-5
[43] = test system: SN12C
[44] = test system: SNB-19
[45] = test system: SNB-75
[46] = test system: SNB-78
[47] = test system: SW-620
[48] = test system: TK-10
[49] = test system: U-251
[50] = test system: UACC-257
[51] = test system: UACC-62
[52] = test system: UO-31
[53] = test system: XF498

`CC1=C(C(=O)NCc2ccccc2)C(c2ccc([N+](=O)[O-])cc2)C(C(=O)NCc2ccccc2)=C(C)N1` was tested, and the GI50 [1] was 44.2 µM (inactive), the GI50 [2] was 86.1 µM (inactive) and the GI50 [3] was 31.9 µM (inactive). For the same compound, the GI50 [4] was 27.4 µM (inactive), the GI50 [5] was 26.7 µM (inactive) and the GI50 [6] was 29.2 µM (inactive). For the same compound, the GI50 [7] was 36.7 µM (inactive), the GI50 [8] was 30.2 µM (inactive) and the GI50 [9] was 40.6 µM (inactive). For the same compound, the GI50 [10] was > 100 µM (inactive), the GI50 [11] was 39.8 µM (inactive) and the GI50 [12] was 21.9 µM (inactive). For the same compound, the GI50 [13] was 45.4 µM, the GI50 [14] was 21.2 µM (inactive) and the GI50 [15] was > 100 µM (inactive). For the same compound, the GI50 [16] was > 100 µM (inactive), the GI50 [17] was 26.8 µM (inactive) and the GI50 [18] was 18.1 µM (inactive). For the same compound, the GI50 [19] was 56.5 µM (inactive), the GI50 [20] was 31.2 µM (inactive) and the GI50 [21] was 22 µM (inactive). The GI50 [22] was 34.7 µM (inactive), the GI50 [23] was 18.2 µM (inactive) and the GI50 [24] was 36.7 µM (inactive). The GI50 [25] was 21.8 µM (inactive), the GI50 [26] was 21.3 µM (inactive) and the GI50 [27] was 67.5 µM (inactive). For the same compound, the GI50 [28] was 31.8 µM (inactive), the GI50 [29] was 39.7 µM (inactive) and the GI50 [30] was 35.1 µM (inactive). For the same compound, the GI50 [31] was 28.5 µM (inactive), the GI50 [32] was 46.5 µM (inactive) and the GI50 [33] was 17.4 µM (inactive). The GI50 [34] was 25.4 µM (inactive), the GI50 [35] was 39.8 µM (inactive) and the GI50 [36] was 31.6 µM (inactive). The GI50 [37] was 50.7 µM (inactive), the GI50 [38] was 37.1 µM (inactive) and the GI50 [39] was 66.4 µM (inactive). For the same compound, the GI50 [40] was 37.7 µM (inactive), the GI50 [41] was 30.8 µM (inactive) and the GI50 [42] was 38.5 µM (inactive). The GI50 [43] was 76 µM (inactive), the GI50 [44] was 65.2 µM (inactive) and the GI50 [45] was 40.4 µM (inactive). For the same compound, the GI50 [46] was 78.7 µM (inactive), the GI50 [47] was 63.7 µM (inactive) and the GI50 [48] was 42.8 µM (inactive). The GI50 [49] was 40.3 µM (inactive), the GI50 [50] was 38.6 µM (inactive) and the GI50 [51] was 16.8 µM (inactive). For the same compound, the GI50 [52] was 20.6 µM (inactive) and the GI50 [53] was 59 µM (inactive).

Reference: ChEMBL document CHEMBL1201862, “PubChem BioAssay data set” (2004)
